Columns and labels:
[1] = Pharmacokinetic evaluation in Nu/Nu mice (plasma, LC-MS/MS); assay type: in vivo; conditions: mouse, plasma, po, i.g., 100 mg/kg; for Vd/F: read-out: Apparent volume of distribution V/F; for AUC(0-t): read-out: Area under the curve AUC0-t; for CL/F: read-out: Clearance CL/F; for half-life: read-out: Half life T1/2 (converted); for Cmax: read-out: Plasma concentration Cmax
Method: Using Nu/Nu mice as the test animals, the plasma concentrations of the example compounds at different time points were determined by LC-MS/MS following oral gavage (i.g.) administration. The pharmacokinetic behaviours of the compounds of the present disclosure in Nu/Nu mice were investigated, and their pharmacokinetic profiles were evaluated.
Compound 1-p1, compound 2-p1, compound 8-p1 and comparative example 1.
A total of 36 female Nu/Nu mice (supplied by Vital River Laboratory Animal Technology Co., Ltd.) were randomly divided into 4 groups.
An appropriate amount of each test compound was weighed and dissolved in 5% DMSO+20% PEG400+70% (10% TPGS)+5% (1% HMPC K100LV) to prepare a 10 mg/mL colourless clear solution.
The administration dosage was 100 mg/kg, and the administration volume was 10 mL/kg.
Mice were not fasted. After oral gavage administration, blood (0.1 mL) was collected from the orbital cavity before administration, and at 0.25 h, 0.5 h, 1.0 h, 2.0 h, 4.0 h, 6.0 h, 8.0 h, 11.0 h and 24.0 h after administration. The blood was placed into EDTA-K2 anticoagulant tubes and centrifuged at 10000 rpm for 1 minute (4°C) to separate plasma. The plasma was separated within 1 h and stored at -20°C until analysis. The entire process from blood collection to centrifugation was performed in ice bath conditions.
Determination of test compound contents in plasma of Nu/Nu mice after administration of different compounds: To 20 µL of plasma samples from each time point in Nu/Nu mice, 200 µL of acetonitrile and 25 µL of verapamil (100 ng/mL) were added. The mixture was vortex-mixed for 5 minutes and centrifuged at 4000 rpm for 15 minutes. 90 µL of water and 90 µL of the supernatant were vortex-mixed for 5 minutes. 2 µL (for compound 1-p1), 2 µL (for compound 2-p1), 1 µL (for compound 8-p1), or 0.5 µL (for comparative example 1) of the supernatant was taken for LC-MS/MS analysis receptively.

[2] = target: T1, Recombinant human PRMT5: MEP50 protein (Homo sapiens, UniProt O14744); assay: Inhibitory activity against human PRMT5 enzymatic activity (HTRF quantification of SAH, +MTA); assay type: biochemical; conditions: +1 µM MTA; histone H4 peptide substrate (1-21), SAM; 37°C 120 min
T1 construct: purchased active motif 31521
Method: • 1. Recombinant human PRMT5: MEP50 protein (active motif, 31521) • 2. EPIgeneous Methyltransferase kit (cisbio, 62SAHPEH) • 3. 96-well plate (Sangon Biotech, F610960-0010) • 4. 384-well white plate (Perkin Elmer, 6007290) • 5. 1 M Tris-HCl [pH 8.5] (Sangon Biotech, B548141) • 6. Histone H4 peptide substrates (1-21) (BPS bioscience, 52014) • 7. 5'-deoxy-5'-(methylthio)adenosine (Aladdin, D168979-25 mg) • 8. Tween-20 (Sangon Biotech, A100777-0500) • 9. DMSO (Sigma, D2650) • 10. Incubator (Shanghai Boxun Medical Biological Instrument Corp.) • 11. PHERAstar FS microplate reader (BMG Labtech)
PRMT5 can induce the transfer of a methyl group from S-adenosylmethionine (SAM) to a histone H4 peptide substrate (1-21), generating S-adenosylhomocysteine (SAH). In this experiment, the amount of SAH produced in the reaction is quantified using a Homogeneous Time-Resolved Fluorescence (HTRF) method to evaluate the inhibitory activity of compounds against PRMT5 enzymatic activity.
The sample diluent containing (or not containing) 1 µM 5 '-deoxy-5' - (methylthiyl) adenosine (MTA) was prepared using the EPIgeneous Diluent Buffer from the EPIgeneous Methyltransferase kit. With reference to the instructions, SAM and SAH standards were serially diluted and dispensed at 10 µL per well (in duplicate for each concentration). 2 µL of EPIgeneous Detection Buffer 1 was added to each well, and the plate was centrifuged, shaken to mix thoroughly, and placed at room temperature for 10 min. The SAH d2 Reagent was diluted 32-fold with EPIgeneous Detection Buffer 2, and 4 µL of the diluted SAH-d2 solution was added to each well. The plate was centrifuged and shaken for 2 min to mix thoroughly. The SAH Tb Cryptate Antibody was diluted 50-fold in EPIgeneous Detection Buffer 2. 4 µL of the diluted Tb Cryptate Antibody solution was added to each well, and the plate was centrifuged, shaken for 2 min to mix thoroughly, and left to stand at room temperature for 60 min, followed by reading on a PHERAstar FS microplate reader to obtain the 665/620 ratio. Plotting SAH concentration against the ratio to generate an x-y curve yields a corresponding calculation formula.
Reaction buffer (1×): 50 mM Tris-HCl [pH 8.5], 1 mM DTT, 0.005% Tween-20.
Compound preparation: a 20 mM solution of test compound in 100% DMSO was diluted in 100% DMSO to 1 mM as the highest concentration, and the solution at this concentration was then subjected to a 10-point, 3-fold serial dilution in 100% DMSO in a 96-well plate. Wells containing 100% DMSO served as the blank control. The above-described serially diluted compounds and the 100% DMSO were diluted 20-fold with the reaction buffer to prepare 5× compound solutions, which were mixed thoroughly for use.
The PRMT5:MEP50 was diluted in the reaction buffer to a final concentration of 12.5 nM. Then, 4 µL of the 12.5 nM PRMT5:MEP50 solution was added to each well of a 384-well plate. Wells containing 4 µL of the reaction buffer served as the negative control wells. 2 µL of the 5× compound solution was added to each well. For the negative control wells (no enzyme, no compound) and the positive control wells (no compound), 2 µL of 5% DMSO was added. The plate was sealed with a membrane, centrifuged, shaken for 2 min to mix thoroughly, and placed at room temperature for 20 min.
Preparation of substrate mixture solution: The substrate mixture solution containing 1.5 µM histone H4 peptide substrate (1-21) and 2.5 µM SAM, or 1.5 µM histone H4 peptide substrate (1-21), 2.5 µM SAM and 2.5 µM MTA was prepared in the reaction buffer.
The reaction was initiated by adding 4 µL of the substrate mixture solution (-/+ MTA) to each well. The plate was sealed with a membrane, centrifuged, shaken for 2 min to mix thoroughly, and incubated at 37°C for 120 min in a constant temperature incubator.
Detection: The detection was performed by using the EPIgeneous Methyltransferase kit. […]

T1 sequence (O14744 whole entry): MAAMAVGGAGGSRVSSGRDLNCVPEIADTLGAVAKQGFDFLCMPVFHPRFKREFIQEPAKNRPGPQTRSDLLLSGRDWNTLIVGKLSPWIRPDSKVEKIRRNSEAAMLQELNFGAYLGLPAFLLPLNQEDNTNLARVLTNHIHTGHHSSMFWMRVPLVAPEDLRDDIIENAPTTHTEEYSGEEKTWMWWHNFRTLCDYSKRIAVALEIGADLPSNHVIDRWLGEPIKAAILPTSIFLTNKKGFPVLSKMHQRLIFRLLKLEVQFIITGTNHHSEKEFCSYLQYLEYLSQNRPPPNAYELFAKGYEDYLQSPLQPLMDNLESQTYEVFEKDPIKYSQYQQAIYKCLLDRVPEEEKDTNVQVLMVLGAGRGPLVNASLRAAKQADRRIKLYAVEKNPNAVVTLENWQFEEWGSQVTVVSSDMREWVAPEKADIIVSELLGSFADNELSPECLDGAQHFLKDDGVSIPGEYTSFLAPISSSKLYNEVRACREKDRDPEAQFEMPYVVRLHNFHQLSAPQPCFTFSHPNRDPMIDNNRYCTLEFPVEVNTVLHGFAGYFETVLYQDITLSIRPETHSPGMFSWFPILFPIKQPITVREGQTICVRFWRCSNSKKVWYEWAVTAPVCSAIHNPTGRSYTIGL
T1 sequence (Q9BQA1 whole entry partner): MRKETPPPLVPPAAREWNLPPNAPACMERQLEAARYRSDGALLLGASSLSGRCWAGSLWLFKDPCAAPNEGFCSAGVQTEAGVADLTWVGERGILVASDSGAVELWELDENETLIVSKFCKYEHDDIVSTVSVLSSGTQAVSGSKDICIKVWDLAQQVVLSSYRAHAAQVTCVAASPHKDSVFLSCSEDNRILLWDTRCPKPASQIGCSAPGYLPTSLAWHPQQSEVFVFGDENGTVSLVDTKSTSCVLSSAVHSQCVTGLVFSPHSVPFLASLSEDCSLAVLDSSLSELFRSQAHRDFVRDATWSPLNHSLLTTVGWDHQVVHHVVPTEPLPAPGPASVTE

For `Cn1ncc(-c2ccc3c(=O)[nH]nc(CN)c3c2)c1-c1c(F)cc2c(c1C#N)O[C@H]1CC[C@H]1O2` (atropisomer, axis not shown; (M)) [Compound 1-p1, (M)-(2aS,8aR)-5-(4-(4-(aminomethyl)-1-oxo-1,2-dihydrophthalazin-6-yl)-1-methyl-1H-pyrazol-5-yl)-6-fluoro-1,2,2a,8a-tetrahydrobenzo[b]cyclobuta[e][1,4]dioxine-4-carbonitrile], which Vd/F [1] is on record?
The Vd/F was 35.4 L/kg.

And the AUC(0-t) [1]?
The AUC(0-t) was 8650 ng·h/mL.

And the CL/F [1]?
The CL/F was 189 mL/min/kg.

And the half-life [1]?
Its half-life is 132 min.

What about the Cmax [1] of the same compound?
The Cmax was 3250 ng/mL.

What about the IC50 [2] of the same compound?
The IC50 was 4.91 nM.

For `[2H]C([2H])([2H])n1ncc(-c2ccc3c(=O)[nH]nc(CN)c3c2)c1-c1c(F)cc2c(c1C#N)O[C@H]1CC[C@H]1O2` (single isomer, unassigned) [Compound 2-p1], which Vd/F [1] is on record?
The Vd/F was 23.3 L/kg.

And the AUC(0-t) [1]?
The AUC(0-t) was 7140 ng·h/mL.

And the CL/F [1]?
Its CL/F is 233 mL/min/kg.

What about the half-life [1] of the same compound?
The half-life was 72 min.

What about the Cmax [1] of the same compound?
Its Cmax is 2940 ng/mL.

What about the IC50 [2] of the same compound?
Its IC50 is 5.23 nM.

Which results are given for `[2H]C([2H])([2H])n1ncc(-c2ccc3c(=O)[nH]nc(CN)c3c2)c1-c1c(F)cc2c(c1C#N)N1CCC[C@H]1CO2` (single isomer, unassigned) [Compound 8-p1]?
Vd/F [1]: 23.9 L/kg; AUC(0-t) [1]: 7640 ng·h/mL; CL/F [1]: 218 mL/min/kg; half-life [1]: 78 min; Cmax [1]: 2530 ng/mL; IC50 [2]: 5.19 nM

Source: patent publication EP4759817A1, “HETEROARYL COMPOUND, PREPARATION METHOD THEREFOR, AND USE THEREOF IN MEDICINE” (Jiangsu Hengrui Pharmaceuticals Co., Ltd., priority 2023, dated 2025)
